In patent US9855270B2, “Methods and compositions for modulating estrogen receptor mutants” (priority 2014, dated 2018):
Like-named read-outs stand apart in the source and are kept apart here.

Assays:
Assay type in all cases: cell-based
Parameters in all cases: Percent inhibition compared to vehicle: concentration or dose not given beside the values
[1] = tested on: MCF-7 cells stably expressing EF1 HA-ER-α Y537N; experiment: cells; conditions: EF1 HA-ER-α Y537N; for Percent inhibition compared to vehicle: 5-Day Incubation; for Efficacy (Emax): Day 5 relative to Day 0; for EC50: read-out: Potency (EC50; nM)
Excerpt: (§1) MCF-7 Mutant ER-α Stable Cell Line Generation: MCF-7 cells stably expressing wild-type or ER-α mutants were generated by subcloning ESR1 wild-type and mutant cDNAs containing an amino terminal hemagglutinin tag into pCDH-EF1-MCS-(PGK-Puro) (referred to as EF1 HA-ER-α) and pCDH-UbC-MCS-EF1-Hygro (referred to as UbC HA-ER-α) (System Biosciences). The resulting plasmids, in addition to an empty vector negative control, were subsequently cotransfected into HEK293T cells with the pPACKH1 packaging plasmid mix (System Biosciences) according to the manufacturer's protocol. Four days post transfection lentiviral particles were purified from the cell medium, tiered and stored at −80° C. MCF-7 cells were transduced with the purified viral particles and stable cell lines were selected by growth in RPMI containing 10% FBS plus 1 μG/mL puromycin or 200 μG/mL hygromycin for pCDH-EF1-MCS-(PGK-Puro) and pCDH-UbC-MCS-EF1-Hygro, respectively.
(§2) MCF-7 Stable Cell Line Viability: MCF-7 cells were enumerated with a hemacytometer adjusted to a concentration of 40,000 cells per mL in Phenol Free RPMI containing 10% CSS with NEAA and Sodium Pyruvate. 16 microliters of the cell suspension was added to each well of a 384 well tissue culture treated white clear bottom polystyrene plate (Corning) using a Matrix 16 channel electronic pipette. The cells were incubated overnight to allow the cells to adhere. The following day, 16 microliters of Phenol Free RPMI containing 10% CSS with NEAA and Sodium Pyruvate was added to the wells of one plate, followed by 16 μL of CellTiter-Glo (Promega, Madison Wis.) luminescent cell viability reagent using a Matrix 16 channel electronic pipette. […] The “average” of the relative luminescence units (RLUs) of the wells are considered to be the baseline value at time=zero. In addition, a 10 point, 1:5 serial dilution in DMSO (Sigma-Aldrich) was performed using Matrix 12 channel electronic pipette, including DMSO only as […]. 4 μL of each dilution was then added to 196 μL of RPMI containing 10% CSS with NEAA and Sodium Pyruvate. 16 μL of medium containing compound was added to the cells at a final concentration ranging from 10 μM to 5 pM. Compound dilution in media and subsequent addition to cells were carried out using Matrix 12 channel electronic pipettes. After 5 day compound exposure, 16 μL of CellTiter-Glo (Promega, Madison Wis.) luminescent cell viability reagent was added to the cells using a Matrix 16 channel electronic pipette. CellTiter-Glo added to 32 μL of medium without cells was used to obtain a background value. […] The relative luminescence units (RLUs) of each well were measured, and relative proliferation (fold) of each sample was determined as follows: (RLU sample−RLU background)/(RLU at T=0)=relative proliferation
(§3) The UbC promoter is reported by the manufacturer (System Biosciences) to express low to moderate RNA levels while the EF1 promoter expresses high levels (System Biosciences).

[2] = tested on: MCF-7 cells stably expressing UbC HA-ER-α L536P; experiment: cells
Excerpt: as §1, §2, §3

[3] = tested on: MCF-7 cells stably expressing EF1 HA-ER-α L536R; experiment: cells; conditions: EF1 HA-ER-α L536R; for Percent inhibition compared to vehicle: 5-Day Incubation; for Efficacy (Emax): Day 5 relative to Day 0; for EC50: read-out: Potency (EC50; nM)
Excerpt: as §1, §2, §3

[4] = tested on: MCF-7 cells stably expressing EF1 HA-ER-α L536P; experiment: cells; conditions: EF1 HA-ER-α L536P; for Percent inhibition compared to vehicle: 5-Day Incubation; for Efficacy (Emax): Day 5 relative to Day 0; for EC50: read-out: Potency (EC50; nM)
Excerpt: as §1, §2, §3

[5] = tested on: MCF-7 cells transduced with an empty EF1 lentiviral vector (negative control); experiment: MCF-7 Stable Cell Line Viability (EF1 HA-ER-α series); conditions: Receptor None (empty EF1 lentiviral vector); for Efficacy (Emax): Day 5 relative to Day 0; for EC50: read-out: Potency (EC50; nM)
Excerpt: as §1, §2, §3

[6] = tested on: MCF-7 cells stably expressing EF1 HA-ER-α wild-type; experiment: as above; conditions: EF1 HA-ER-α Wild-type; for Percent inhibition compared to vehicle: 5-Day Incubation; for Efficacy (Emax): Day 5 relative to Day 0; for EC50: read-out: Potency (EC50; nM)
Excerpt: as §1, §2, §3

[7] = tested on: MCF-7 cells (negative control); experiment: MCF-7 Stable Cell Line Viability (UbC HA-ER-α series); conditions: Receptor None (MCF-7 negative control)
Excerpt: as §1, §2, §3

[8] = tested on: MCF-7 cells stably expressing UbC HA-ER-α wild-type; experiment: as above; conditions: UbC HA-ER-α Wild-type; for Percent inhibition compared to vehicle: 5-Day Incubation; for Efficacy (Emax): Day 5 relative to Day 0; for EC50: read-out: Potency (EC50; nM)
Excerpt: as §1, §2, §3

[9] = Antagonist Mode, −E2 (Table 27)
[10] = Agonist Mode, −E2, 5-Day Incubation
[11] = Agonist Mode, −E2, Day 5 relative to Day 0
[12] = Agonist Mode, −E2, read-out: Potency (EC50; nM)
[13] = Antagonist Mode, +E2, 5-Day Incubation
[14] = Antagonist Mode, +E2, Day 5 relative to Day 0
[15] = Antagonist Mode, +E2, read-out: Potency (EC50; nM)

**Q.** CCC(=C(c1ccc(O)cc1)c1ccc(OCCN(C)C)cc1)c1ccccc1 [4-Hydroxytamoxifen] was tested. Which “Percent inhibition compared to vehicle” value ([1]; Agonist Mode, −E2) did it give?
**A.** The value was 60%.

**Q.** And the “Efficacy (Emax)” value ([1]; Agonist Mode, −E2)?
**A.** The value was 2.43 ± 0.13.

**Q.** What about the EC50 ([1]; Agonist Mode, −E2) of the same compound?
**A.** The EC50 was 6.04 ± 1.36 nM.

**Q.** And the “Percent inhibition compared to vehicle” value ([1]; Antagonist Mode, +E2)?
**A.** The value was 57%.

**Q.** What about the “Efficacy (Emax)” value ([1]; Antagonist Mode, +E2) of the same compound?
**A.** The value was 2.39 ± 0.24.

**Q.** What about the EC50 ([1]; Antagonist Mode, +E2) of the same compound?
**A.** The EC50 was 5.25 ± 2.84 nM.

**Q.** And the EC50 [1, 9]?
**A.** Its EC50 is 6.04 ± 1.36 nM.

**Q.** What about the “Percent inhibition compared to vehicle” value [2, 10] of the same compound?
**A.** The value was 35%.

**Q.** And the “Efficacy (Emax)” value [2, 11]?
**A.** Its value is 2.06 ± 0.19.

**Q.** What about the EC50 [2, 12] of the same compound?
**A.** Its EC50 is 0.821 ± 0.726 nM.

**Q.** What about the “Percent inhibition compared to vehicle” value [2, 13] of the same compound?
**A.** Its value is 61%.

**Q.** And the “Efficacy (Emax)” value [2, 14]?
**A.** The value was 2.31 ± 0.27.

**Q.** And the EC50 [2, 15]?
**A.** Its EC50 is 2.13 ± 4.68 nM.

**Q.** And the “Percent inhibition compared to vehicle” value ([3]; Agonist Mode, −E2)?
**A.** Its value is 43%.

**Q.** What about the “Efficacy (Emax)” value ([3]; Agonist Mode, −E2) of the same compound?
**A.** The value was 3.91 ± 0.04.

**Q.** What about the EC50 ([3]; Agonist Mode, −E2) of the same compound?
**A.** Its EC50 is 7.14 ± 6.64 nM.

**Q.** What about the “Percent inhibition compared to vehicle” value ([3]; Antagonist Mode, +E2) of the same compound?
**A.** Its value is 47%.

**Q.** What about the “Efficacy (Emax)” value ([3]; Antagonist Mode, +E2) of the same compound?
**A.** The value was 3.65 ± 0.29.

**Q.** What about the EC50 ([3]; Antagonist Mode, +E2) of the same compound?
**A.** The EC50 was 19 ± 18.2 nM.

**Q.** And the EC50 [3, 9]?
**A.** Its EC50 is 7.14 ± 6.64 nM.

**Q.** What about the “Percent inhibition compared to vehicle” value ([4]; Agonist Mode, −E2) of the same compound?
**A.** The value was 58%.

**Q.** And the “Efficacy (Emax)” value ([4]; Agonist Mode, −E2)?
**A.** Its value is 3.47 ± 0.03.

**Q.** What about the EC50 ([4]; Agonist Mode, −E2) of the same compound?
**A.** The EC50 was 4.39 ± 0.723 nM.

**Q.** What about the “Percent inhibition compared to vehicle” value ([4]; Antagonist Mode, +E2) of the same compound?
**A.** The value was 60%.

**Q.** And the “Efficacy (Emax)” value ([4]; Antagonist Mode, +E2)?
**A.** Its value is 3.64 ± 0.26.

**Q.** What about the EC50 ([4]; Antagonist Mode, +E2) of the same compound?
**A.** Its EC50 is 9.22 ± 0.546 nM.

**Q.** And the EC50 [4, 9]?
**A.** The EC50 was 4.39 ± 0.723 nM.

**Q.** And the “Efficacy (Emax)” value ([5]; Agonist Mode, −E2)?
**A.** Its value is 1.49 ± 0.06.

**Q.** What about the EC50 ([5]; Agonist Mode, −E2) of the same compound?
**A.** The EC50 was 0.531 ± 0.381 nM.

**Q.** And the “Percent inhibition compared to vehicle” value [5, 13]?
**A.** The value was 60%.

**Q.** And the “Efficacy (Emax)” value ([5]; Antagonist Mode, +E2)?
**A.** Its value is 1.60 ± 0.08.

**Q.** What about the EC50 ([5]; Antagonist Mode, +E2) of the same compound?
**A.** Its EC50 is 2.32 ± 0.599 nM.

**Q.** And the EC50 [5, 9]?
**A.** The EC50 was 0.531 ± 0.381 nM.

**Q.** What about the “Percent inhibition compared to vehicle” value ([6]; Agonist Mode, −E2) of the same compound?
**A.** The value was 30%.

**Q.** What about the “Efficacy (Emax)” value ([6]; Agonist Mode, −E2) of the same compound?
**A.** Its value is 3.99 ± 0.38.

**Q.** What about the EC50 ([6]; Agonist Mode, −E2) of the same compound?
**A.** The EC50 was 0.186 ± 0.04 nM.

**Q.** What about the “Percent inhibition compared to vehicle” value ([6]; Antagonist Mode, +E2) of the same compound?
**A.** Its value is 40%.

**Q.** What about the “Efficacy (Emax)” value ([6]; Antagonist Mode, +E2) of the same compound?
**A.** The value was 4.05 ± 0.36.

**Q.** What about the EC50 ([6]; Antagonist Mode, +E2) of the same compound?
**A.** Its EC50 is 5.16 ± 0.137 nM.

**Q.** And the EC50 [6, 9]?
**A.** Its EC50 is 0.186 ± 0.04 nM.

**Q.** What about the “Percent inhibition compared to vehicle” value [7, 10] of the same compound?
**A.** Its value is 19%.

**Q.** And the “Efficacy (Emax)” value [7, 11]?
**A.** The value was 1.42 ± 0.43.

**Q.** And the EC50 [7, 12]?
**A.** Its EC50 is 263 ± 525 nM.

**Q.** And the “Percent inhibition compared to vehicle” value [7, 13]?
**A.** The value was 58%.

**Q.** And the “Efficacy (Emax)” value [7, 14]?
**A.** The value was 1.34 ± 0.07.

**Q.** What about the EC50 [7, 15] of the same compound?
**A.** Its EC50 is 2.47 ± 1.78 nM.

**Q.** What about the “Percent inhibition compared to vehicle” value ([8]; Agonist Mode, −E2) of the same compound?
**A.** The value was 14%.

**Q.** What about the “Efficacy (Emax)” value ([8]; Agonist Mode, −E2) of the same compound?
**A.** Its value is 1.58 ± 0.16.

**Q.** And the EC50 ([8]; Agonist Mode, −E2)?
**A.** The EC50 was 0.626 ± 0.528 nM.

**Q.** And the “Percent inhibition compared to vehicle” value ([8]; Antagonist Mode, +E2)?
**A.** Its value is 68%.

**Q.** And the “Efficacy (Emax)” value ([8]; Antagonist Mode, +E2)?
**A.** Its value is 1.57 ± 0.08.

**Q.** And the EC50 ([8]; Antagonist Mode, +E2)?
**A.** The EC50 was 2.95 ± 2.51 nM.
